Converted amounts (≈) assume the structure as drawn.
Columns and labels:
[1] = cited from earlier work
[2] = Solubility / saturation point of rapamycin in solvents; format: physicochemical; conditions: xylene at 20° C.
Protocol: Rapamycin has a molecular weight of 914.17 g/mol and molecular formula: C51H79NO13 (see also FIG. 1). It is insoluble in water, but soluble in ethanol (2 mM), methanol (25 mg/mL), DMSO (25 mg/mL), chloroform, (5 mg/mL), ether, acetone and N,N-dimethylformamide. As commercially supplied, rapamycin exists as one isomer (structurally homogeneous) in the solid form as indicated by X-rays whereas in solution there are two conformational isomers (approx. 4:1) which exist in equilibrium.
As a general matter, the macrolide therapeutic can be dissolved and/or dispersed in a desired amount in a solvent, or mixture of solvents, for forming the macrolide particulates. As a general matter, dependent on the solvent or solvent combination, as well as the macrolide being dissolved, it is understood in the composition that the macrolide can display a maximum solubility at a predetermined temperature, such as about 20° C. At the maximum solubility a solution can be referred to as “saturated.” The amount of macrolide dissolved can be described in conventional terms such as mg/mL, % (wt/vol), or molar. For example, the saturation point of rapamycin in many solvents is in the range of 15 mg/mL to 150 mg/mL. […]

CO[C@H]1C[C@@H]2CC[C@@H](C)[C@@](O)(O2)C(=O)C(=O)N2CCCC[C@H]2C(=O)O[C@H]([C@H](C)C[C@@H]2CC[C@@H](O)[C@H](OC)C2)CC(=O)[C@H](C)/C=C(\C)[C@@H](O)[C@@H](OC)C(=O)[C@H](C)C[C@H](C)/C=C/C=C/C=C/1C [Rapamycin, rapamycin]
solubility in chloroform ([1]; chloroform): 5000 µg/mL (≈ 5.47 mM)
solubility in ethanol ([1]; ethanol): 2000 µM (≈ 1830 µg/mL)
solubility in ether, acetone and N,N-dimethylformamide ([1]; ether, acetone, N,N-dimethylformamide): soluble
solubility in water ([1]; water): insoluble
saturated solution concentration in xylene [2]: about 75 mg/mL
